Assay results reported in patent US12459932B2, “KIF18A inhibitors” (AMGEN INC., priority 2018, dated 2025).

What follows are molecules tested against T1, Recombinant human KIF18A (1-467 His-tagged) (Homo sapiens, UniProt Q8NI77) (assay: KIF18A Enzyme Assay: microtubule-stimulated ATPase activity (ADP-Glo)). Settings: 30 nM KIF18A, 30 μg/mL pig microtubules, ATP 75 μM (Km), ADP-Glo luminescence.
T1 construct: Recombinant human KIF18A (1-467 His-tagged) protein; His
T1 sequence (Q8NI77 1-467): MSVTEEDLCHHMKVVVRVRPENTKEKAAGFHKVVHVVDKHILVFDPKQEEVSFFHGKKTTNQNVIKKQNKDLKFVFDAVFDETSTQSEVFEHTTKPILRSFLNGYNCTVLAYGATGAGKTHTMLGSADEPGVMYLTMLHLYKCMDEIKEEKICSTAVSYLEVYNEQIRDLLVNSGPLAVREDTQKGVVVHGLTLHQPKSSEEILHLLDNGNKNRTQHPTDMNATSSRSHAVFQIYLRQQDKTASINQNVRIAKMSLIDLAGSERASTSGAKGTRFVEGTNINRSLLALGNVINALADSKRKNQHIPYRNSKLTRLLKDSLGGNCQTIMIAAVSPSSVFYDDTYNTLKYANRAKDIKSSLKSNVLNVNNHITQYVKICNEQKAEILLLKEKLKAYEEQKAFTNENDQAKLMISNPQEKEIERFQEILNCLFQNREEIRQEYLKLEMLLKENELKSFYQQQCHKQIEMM
T1 sequence (P02550 whole entry partner): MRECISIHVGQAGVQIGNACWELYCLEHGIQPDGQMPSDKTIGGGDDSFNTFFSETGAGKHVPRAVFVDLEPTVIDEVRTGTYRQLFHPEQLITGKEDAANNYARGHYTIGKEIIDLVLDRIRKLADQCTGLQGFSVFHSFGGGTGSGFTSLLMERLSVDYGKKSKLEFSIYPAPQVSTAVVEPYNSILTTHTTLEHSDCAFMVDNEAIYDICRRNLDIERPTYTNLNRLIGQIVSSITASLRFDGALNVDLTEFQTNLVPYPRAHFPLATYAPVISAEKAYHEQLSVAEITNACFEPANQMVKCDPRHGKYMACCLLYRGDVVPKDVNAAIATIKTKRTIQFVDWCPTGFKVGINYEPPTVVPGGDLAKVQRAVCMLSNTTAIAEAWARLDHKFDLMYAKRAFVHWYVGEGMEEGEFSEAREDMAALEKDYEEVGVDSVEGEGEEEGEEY
T1 sequence (P02554 whole entry partner): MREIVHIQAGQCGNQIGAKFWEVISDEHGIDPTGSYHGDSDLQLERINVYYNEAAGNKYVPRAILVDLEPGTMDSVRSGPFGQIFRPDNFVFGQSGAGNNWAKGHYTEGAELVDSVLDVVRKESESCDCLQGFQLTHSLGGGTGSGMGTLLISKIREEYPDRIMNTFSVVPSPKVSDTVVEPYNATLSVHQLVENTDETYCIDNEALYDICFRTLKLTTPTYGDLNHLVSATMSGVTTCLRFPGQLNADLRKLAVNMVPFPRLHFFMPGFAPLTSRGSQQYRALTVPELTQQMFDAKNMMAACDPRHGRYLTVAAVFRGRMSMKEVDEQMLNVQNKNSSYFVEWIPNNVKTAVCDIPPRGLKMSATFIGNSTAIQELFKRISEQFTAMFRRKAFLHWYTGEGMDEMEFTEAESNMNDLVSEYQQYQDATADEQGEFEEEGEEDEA
Assay type: biochemical
In short: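 Measures microtubule-stimulated ATPase activity as ADP formed, detected by luminescence. Compounds were tested as 2-fold serial dilutions over 22 points. IC50 values came from four-parameter logistic fits.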
`CN1CC(COc2cccc(NC(=O)c3ccc(NS(=O)(=O)CCO)cc3N3CCC4(CC3)CC4)n2)C1` [Example 16-3, 4-((2-Hydroxyethyl)sulfonamido)-N-(6-((1-methylazetidin-3-yl)methoxy)pyridin-2-yl)-2-(6-azaspiro[2.5]octan-6-yl)benzamide] was tested, and the IC50 was 63 nM.
Molecule `C[C@@H]1CN(c2cccc(NC(=O)c3ccc(S(=O)(=O)NCCO)cc3N3CCC4(CC3)CC4)n2)CCO1` [Example 1-1, (R)-4-(N-(2-Hydroxyethyl)sulfamoyl)-N-(6-(2-methylmorpholino)pyridin-2-yl)-2-(6-azaspiro[2.5]octan-6-yl)benzamide] has an IC50 of 16 nM.
Molecule `CC(C)(O)CCOc1cccc(NC(=O)c2ccc(NS(=O)(=O)CCO)cc2N2CCC3(CC2)CC3)n1` [Example 16-5, N-(6-(3-Hydroxy-3-methylbutoxy)pyridin-2-yl)-4-((2-hydroxyethyl)sulfonamido)-2-(6-azaspiro[2.5]octan-6-yl)benzamide] has an IC50 of 84 nM.
`O=C(Nc1cccc(OCC(O)C(F)(F)F)n1)c1ccc(NS(=O)(=O)CCO)cc1N1CCC2(CC1)CC2` (stereo not drawn) [Example 16-8, 4-((2-Hydroxyethyl)sulfonamido)-2-(6-azaspiro[2.5]octan-6-yl)-N-(6-(3,3,3-trifluoro-2-hydroxypropoxy)pyridin-2-yl)benzamide] showed an IC50 of 18 nM.
`C[C@@H]1CN(c2cccc(NC(=O)c3ccc(CS(C)(=O)=O)cc3N3CCC4(CC3)CC4)n2)CCO1` [Example 4-15, (R)-N-(6-(2-Methylmorpholino)pyridin-2-yl)-4-((methylsulfonyl)methyl)-2-(6-azaspiro[2.5]octan-6-yl)benzamide] was tested, and the IC50 was 85 nM.
For `CS(=O)(=O)c1ccc(C(=O)Nc2cccc(N3CCOCC3)n2)c(N2CCC3(CC2)CC3)c1` [Example 4-12, 4-(Methylsulfonyl)-N-(6-morpholinopyridin-2-yl)-2-(6-azaspiro[2.5]octan-6-yl)benzamide], the IC50 was 118 nM.
`Cc1cc(NC(=O)c2ccc(NS(=O)(=O)C3CCC3)cc2N2CCC3(CC2)CC3)nc(N2CCC(F)(F)CC2)c1` [Example 7-23, 4-(Cyclobutanesulfonamido)-N-(6-(4,4-difluoropiperidin-1-yl)-4-methylpyridin-2-yl)-2-(6-azaspiro[2.5]octan-6-yl)benzamide] gave an IC50 of 110 nM.
`CC(C)(C)c1cccc(NC(=O)c2ccc(S(C)(=O)=O)cc2N2CCC3(CC2)CC3)n1` [Example 4-6, N-(6-(tert-Butyl)pyridin-2-yl)-4-(methylsulfonyl)-2-(6-azaspiro[2.5]octan-6-yl)benzamide] gave an IC50 of 166 nM.
In the case of `C[C@@H]1CN(c2cccc(NC(=O)c3ccc(N4CCNS4(=O)=O)cc3N3CCC4(CC3)CC4)n2)CCO1` [Example 7-4, (R)-4-(1,1-Dioxido-1,2,5-thiadiazolidin-2-yl)-N-(6-(2-methylmorpholino)pyridin-2-yl)-2-(6-azaspiro[2.5]octan-6-yl)benzamide], the IC50 is reported as 287 nM.
Molecule `C[C@@H]1CN(c2cccc(NC(=O)c3ccc(S(=O)(=O)C4COC4)cc3N3CCC4(CC3)CC4)n2)CCO1` [Example 2-4, (R)-N-(6-(2-Methylmorpholino)pyridin-2-yl)-4-(oxetan-3-ylsulfonyl)-2-(6-azaspiro[2.5]octan-6-yl)benzamide] has an IC50 of 38 nM.
`C[C@@H]1CN(c2cccc(NC(=O)c3ccc(NS(=O)(=O)CC(C)(C)O)cc3N3CCC4(CC3)CC4)n2)CCO1` [Example 7-42, (R)-4-((2-Hydroxy-2-methylpropyl)sulfonamido)-N-(6-(2-methylmorpholino)pyridin-2-yl)-2-(6-azaspiro[2.5]octan-6-yl)benzamide] was tested, and the IC50 was 111 nM.
In the case of `CC1(S(=O)(=O)Nc2ccc(C(=O)Nc3cccc(N4CCO[C@@H](CO)C4)n3)c(N3CCC4(CC3)CC4)c2)CC1` [Example 3-11, (R)-N-(6-(2-(Hydroxymethyl)morpholino)pyridin-2-yl)-4-((1-methylcyclopropane)-1-sulfonamido)-2-(6-azaspiro[2.5]octan-6-yl)benzamide], the IC50 is reported as 73 nM.
Molecule `Cc1cc(NC(=O)c2ccc(NS(=O)(=O)CCO)cc2N2CCC3(CC2)CC3)nc(C2CCC(F)(F)CC2)c1` [Example 23, N-(6-(4,4-difluorocyclohexyl)-4-methylpyridin-2-yl)-4-((2-hydroxyethyl)sulfonamido)-2-(6-azaspiro[2.5]octan-6-yl)benzamide] has an IC50 of 41 nM.
Molecule `Cc1cc(NC(=O)c2ccc(NS(C)(=O)=O)cc2N2CCC3(CC2)CC3)nc(N2CC(F)(F)C2)c1` [Example 7-27, N-(6-(3,3-Difluoroazetidin-1-yl)-4-methylpyridin-2-yl)-4-(methylsulfonamido)-2-(6-azaspiro[2.5]octan-6-yl)benzamide] has an IC50 of 14 nM.
In the case of `CC(CO)NS(=O)(=O)c1ccc(C(=O)Nc2cccc(N3CCO[C@H](C)C3)n2)c(N2CCC3(CC2)CC3)c1` (stereo partly drawn) [Example 1-5, 4-(N-(1-Hydroxypropan-2-yl)sulfamoyl)-N-(6-((R)-2-methylmorpholino)pyridin-2-yl)-2-(6-azaspiro[2.5]octan-6-yl)benzamide], the IC50 is reported as 47 nM.
Molecule `Cc1cc(NC(=O)c2ccc(S(=O)(=O)NC3(C)COC3)cc2N2CCC3(CC2)CC3)nc(C(C)(C)O)c1` [Example 4-18, N-(6-(2-Hydroxypropan-2-yl)-4-methylpyridin-2-yl)-4-(N-(3-methyloxetan-3-yl)sulfamoyl)-2-(6-azaspiro[2.5]octan-6-yl)benzamide] has an IC50 of 89 nM.
Molecule `Cc1cc(NC(=O)c2ccc(S(=N)(=O)C3CC3)cc2N2CCC3(CC2)CC3)nc(N2CCC(F)(F)CC2)c1` (stereo in doubt) [Example 30-2, 2-(6-Azaspiro[2.5]octan-6-yl)-4-(R-cyclopropylsulfonimidoyl)-N-(6-(4,4-difluoro-1-piperidinyl)-4-methyl-2-pyridinyl)benzamide] has an IC50 of 42 nM.
In the case of `CC(C)(C)NS(=O)(=O)c1cccc(NC(=O)c2ccc(NS(C)(=O)=O)cc2N2CCC3(CC2)CC3)n1` [Example 7-43, N-(6-(N-(tert-Butyl)sulfamoyl)pyridin-2-yl)-4-(methylsulfonamido)-2-(6-azaspiro[2.5]octan-6-yl)benzamide], the IC50 is reported as 55 nM.
For `CC1(O)CCN(c2cccc(NC(=O)c3ccc(NS(=O)(=O)C4(C)CC4)cc3N3CCC4(CC3)CC4)n2)C1` (stereo not drawn) [Example 3-2, N-(6-(3-Hydroxy-3-methylpyrrolidin-1-yl)pyridin-2-yl)-4-((1-methylcyclopropane)-1-sulfonamido)-2-(6-azaspiro[2.5]octan-6-yl)benzamide], the IC50 was 359 nM.
For `Cc1cc(NC(=O)c2ccc(NS(=O)(=O)CCO)cc2N2CCC3(CC2)CC3)nc(N2CCO[C@@H](C)C2)c1` [Example 7-19, (S)-4-((2-Hydroxyethyl)sulfonamido)-N-(4-methyl-6-(2-methylmorpholino)pyridin-2-yl)-2-(6-azaspiro[2.5]octan-6-yl)benzamide], the IC50 was 49 nM.
`CC(C)(O)c1cccc(NC(=O)c2ccc(NS(=O)(=O)C3(C)CC3)cc2N2CCC3(CC2)CC3)n1` [Example 4-1, N-(6-(2-Hydroxypropan-2-yl)pyridin-2-yl)-4-((1-methylcyclopropane)-1-sulfonamido)-2-(6-azaspiro[2.5]octan-6-yl)benzamide] gave an IC50 of 128 nM.
With `Cc1cc(NC(=O)c2ccc(NS(=O)(=O)CCO)cc2N2CCC3(CC2)CC3)nc(C2CC(F)(F)C2)c1` [Example 7-1, N-(6-(3,3-Difluorocyclobutyl)-4-methylpyridin-2-yl)-4-((2-hydroxyethyl)sulfonamido)-2-(6-azaspiro[2.5]octan-6-yl)benzamide] the IC50 was 45 nM.
`C[C@@H]1CN(c2cccc(NC(=O)c3ccc(S(=O)(=O)N4CCC4)cc3N3CCC4(CC3)CC4)n2)CCO1` [Example 1-7, (R)-4-(Azetidin-1-ylsulfonyl)-N-(6-(2-methylmorpholino)pyridin-2-yl)-2-(6-azaspiro[2.5]octan-6-yl)benzamide] gave an IC50 of 67 nM.
With `C[C@@H]1CN(c2cccc(NC(=O)c3ccc(S(=O)(=O)C(C)(C)CO)cc3N3CCC4(CC3)CC4)n2)CCO1` [Example 2-5, (R)-4-((1-Hydroxy-2-methylpropan-2-yl)sulfonyl)-N-(6-(2-methylmorpholino)pyridin-2-yl)-2-(6-azaspiro[2.5]octan-6-yl)benzamide] the IC50 was 51 nM.
With `Cc1cc(NC(=O)c2ccc(S(=N)(=O)C3CC3)cc2N2CCC3(CC2)CC3)nc(N2CC(F)(F)C2)c1` (single isomer, unassigned) [Example 28-1, 2-(6-Azaspiro[2.5]octan-6-yl)-4-(S-cyclopropylsulfonimidoyl)-N-(6-(3,3-difluoro-1-azetidinyl)-4-methyl-2-pyridinyl)benzamide] the IC50 was 71 nM.
With `CC1(S(=O)(=O)Nc2ccc(C(=O)Nc3cccc(N4CCCCC4)n3)c(N3CCC4(CC3)CC4)c2)CC1` [Example 3-17, 4-((1-Methylcyclopropane)-1-sulfonamido)-N-(6-(piperidin-1-yl)pyridin-2-yl)-2-(6-azaspiro[2.5]octan-6-yl)benzamide] the IC50 was 34 nM.
Work on `O=C(Nc1cccc(N2CCOCC2)n1)c1ccc(NS(=O)(=O)CCO)cc1N1CCC2(CC1)CC2` [Example 7-20, 4-((2-Hydroxyethyl)sulfonamido)-N-(6-morpholinopyridin-2-yl)-2-(6-azaspiro[2.5]octan-6-yl)benzamide] yielded an IC50 of 36 nM.
Molecule `CC1(S(=O)(=O)Nc2ccc(C(=O)Nc3cccc(N4CCC5(CC5)C4)n3)c(N3CCC4(CC3)CC4)c2)CC1` [Example 3-20, N-(6-(5-Azaspiro[2.4]heptan-5-yl)pyridin-2-yl)-4-((1-methylcyclopropane)-1-sulfonamido)-2-(6-azaspiro[2.5]octan-6-yl)benzamide] has an IC50 of 50 nM.
With `CC(Oc1cccc(NC(=O)c2ccc(NS(=O)(=O)CCO)cc2N2CCC3(CC2)CC3)n1)C1CC1` (stereo not drawn) [Example 16-1, N-(6-(1-Cyclopropylethoxy)pyridin-2-yl)-4-((2-hydroxyethyl)sulfonamido)-2-(6-azaspiro[2.5]octan-6-yl)benzamide] the IC50 was 51 nM.
Molecule `CC(C)S(=O)(=O)c1ccc(C(=O)Nc2cccc(N3CCO[C@H](C)C3)n2)c(N2CCC3(CC2)CC3)c1` [Example 2, (R)-4-(Isopropylsulfonyl)-N-(6-(2-methylmorpholino)pyridin-2-yl)-2-(6-azaspiro[2.5]octan-6-yl)benzamide] has an IC50 of 34 nM.
